This note sets out measurements from patent publication US12331026B2 (NiKang Therapeutics, Inc., priority 2022, dated 2025).

This assay concerns the target T1, CDK2 (Homo sapiens, UniProt P24941).
T1 construct: endogenous in cells; host or cells: OVCAR3 cells
Put plainly: Phospho-RB measurement in OVCAR3 cells (HTRF phospho-RB S807/811). It is filed as cell-based. As to conditions: phosphorylation of RB protein at S807/811, HTRF, 24 h compound treatment, 0.3 to 10,000 nM, read-out: pRb (uM). How it is done: The ability of compounds of Formula (I) to inhibit CDK2 was determined in OVCAR3 cells. Phosphorylation of RB protein at S807/811 were measured using HTRF phospho-RB cellular kits (Cat #64RBS807PEG) from Cisbio.
On Day 1, OVCAR3 cells were seeded into 96-well tissue-culture treated plates at 20,000 cells/well in 200 μL and incubated overnight at 37° C. in CO2 atmosphere. On Day 2, the cells were treated with test compounds at concentrations from 0.3 to 10,000 nM using HP D300 digital dispenser. Twenty-four hours after compound treatment, cell culture media was removed by flicking the plate and tapping the plate against clean paper towel. Immediately 30 μL 1× lysis buffer was supplemented from the kit and the plate was incubated at room temperature on shaker for 30 min. After homogenization by pipetting up and down, 8 μL cell lysate from 96-well cell culture plate was transferred to 384-well small volume white detection plate. 2 μL premixed detection solution was added and the plate was covered with sealer. To prepare the detection solution, d2 conjugated-phospho-RB antibody and Eu-cryptate conjugated phosphor-RB antibody were diluted into detection buffer following manufacturer's instruction.
Detection plates were incubated for 4 h at room temperature and read on ClarioStar (BMG Labtech) in TR-FRET mode ([…]). The TR-FRET ratio (665 nM1/620 nM) was plotted against the compound concentration and normalized to DMSO controls. Half maximal inhibition concentration (IC50) values are calculated with a four-parameter logistic fit using GraphPad Prism (version 8; La Jolla, CA).
Background: In TR-FRET formats the signal depends on donor and acceptor labels being close together.
As for `CC1(C)CCN1c1nc(-c2cccc(NS(=O)(=O)c3c(F)cccc3C(F)(F)F)c2F)c(-c2ccnc(N[C@@H]3[C@@H]4CS(=O)(=O)C[C@@H]43)n2)s1` [Example 120, N-(3-(2-(2,2-dimethylazetidin-1-yl)-5-(2-(((1R,5S,6s)-3,3-dioxido-3-thiabicyclo[3.1.0]hexan-6-yl)amino)pyrimidin-4-yl)thiazol-4-yl)-2-fluorophenyl)-2-fluoro-6-(trifluoromethyl)benzenesulfonamide], the IC50 came to 0.29 µM. With `O=S1(=O)CC2(CC(Nc3nccc(-c4sc(N5C6CCC5CN(c5ccccn5)C6)nc4-c4cccc(NS(=O)(=O)c5c(F)cccc5F)c4F)n3)C2)C1` [Example 43, N-(3-(5-(2-((2,2-dioxido-2-thiaspiro[3.3]heptan-6-yl)amino)-pyrimidin-4-yl)-2-(3-(pyridin-2-yl)-3,8-diazabicyclo[3.2.1]octan-8-yl)thiazol-4-yl)-2-fluorophenyl)-2,6-difluorobenzenesulfonamide], the IC50 was 0.46 µM.

`CS(=O)(=O)C1CCC(Nc2nccc(-c3sc(C45CC(F)(C4)C5)nc3-c3cccc(NS(=O)(=O)c4c(F)cccc4C(F)(F)F)c3F)n2)CC1` (stereo not drawn) [Example 27, 2-fluoro-N-(2-fluoro-3-(2-(3-fluorobicyclo[1.1.1]pentan-1-yl)-5-(2-(((1s,4s)-4-(methylsulfonyl)cyclohexyl)amino)pyrimidin-4-yl)thiazol-4-yl)phenyl)-6-(trifluoromethyl)benzenesulfonamide]: the IC50 is 0.066 µM. `C[C@H]1CN(C)C[C@H](C)N1c1nc(-c2cccc(NS(=O)(=O)c3c(F)cccc3C(F)(F)F)c2F)c(-c2ccnc(NC3CC4(C3)CS(=O)(=O)C4)n2)s1` [Example 70, N-(3-(5-(2-((2,2-dioxido-2-thiaspiro[3.3]heptan-6-yl)amino)-pyrimidin-4-yl)-2-((2S,6S)-2,4,6-trimethylpiperazin-1-yl)thiazol-4-yl)-2-fluorophenyl)-2-fluoro-6-(trifluoromethyl)benzenesulfonamide]: the IC50 worked out at 0.03 µM. Turning to `O=S1(=O)CC2C(C1)C2Nc1nccc(-c2sc(C34CC(C3)C4)nc2-c2cccc(NS(=O)(=O)c3c(F)cccc3F)c2F)n1` (stereo not drawn) [Example 93, N-(3-(2-(bicyclo[1.1.1]pentan-1-yl)-5-(2-((3,3-dioxido-3-thiabicyclo[3.1.0]hexan-6-yl)amino)pyrimidin-4-yl)thiazol-4-yl)-2-fluorophenyl)-2,6-difluorobenzenesulfonamide], the IC50 turned out to be 0.04 µM. Take `O=S1(=O)CC2(CC(Nc3nccc(-c4sc(C5(C(F)(F)F)CC5)nc4-c4cccc(NS(=O)(=O)c5c(F)cccc5F)c4F)n3)C2)C1` [Example 89, N-(3-(5-(2-((2,2-dioxido-2-thiaspiro[3.3]heptan-6-yl)amino)-pyrimidin-4-yl)-2-(1-(trifluoromethyl)cyclopropyl)thiazol-4-yl)-2-fluorophenyl)-2,6-difluorobenzenesulfonamide]: the IC50 worked out at 0.12 µM.

As for `O=S1(=O)CC2(CC(Nc3nccc(-c4sc(C56CC(C5)C6)nc4-c4cccc(NS(=O)(=O)c5c(F)cccc5C(F)(F)F)c4F)n3)C2)C1` [Example 26, N-(3-(2-(bicyclo[1.1.1]pentan-1-yl)-5-(2-((2,2-dioxido-2-thiaspiro[3.3]heptan-6-yl)amino)pyrimidin-4-yl)thiazol-4-yl)-2-fluorophenyl)-2-fluoro-6-(trifluoromethyl)benzenesulfonamide], the IC50 worked out at 0.016 µM.

Regarding `O=S1(=O)CC2(CC(Nc3nccc(-c4sc(C56CC(F)(C5)C6)nc4-c4cccc(NS(=O)(=O)c5c(F)cccc5C(F)(F)F)c4F)n3)C2)C1` [Example 86, N-(3-(5-(2-((2,2-dioxido-2-thiaspiro[3.3]heptan-6-yl)amino)-pyrimidin-4-yl)-2-(3-fluorobicyclo[1.1.1]pentan-1-yl)thiazol-4-yl)-2-fluorophenyl)-2-fluoro-6-(trifluoromethyl)benzenesulfonamide], the IC50 worked out at 0.04 µM.

On to `O=S1(=O)CC2(CC(Nc3nccc(-c4sc(C56CC(C(F)F)(C5)C6)nc4-c4cccc(NS(=O)(=O)c5c(F)cccc5C(F)(F)F)c4F)n3)C2)C1` [Example 92, N-(3-(2-(3-(difluoromethyl)bicyclo[1.1.1]pentan-1-yl)-5-(2-((2,2-dioxido-2-thiaspiro[3.3]heptan-6-yl)amino)pyrimidin-4-yl)thiazol-4-yl)-2-fluorophenyl)-2-fluoro-6-(trifluoromethyl)benzenesulfonamide], for which the IC50 was 0.04 µM. On to `O=S1(=O)C[C@H]2C[C@H](Nc3nccc(-c4sc(C56CC(C5)C6)nc4-c4cccc(NS(=O)(=O)c5c(F)cccc5F)c4F)n3)C[C@H]2C1` [Example 152, N-(3-(2-(bicyclo[1.1.1]pentan-1-yl)-5-(2-(((3aR,5s,6aS)-2,2-dioxidohexahydro-1H-cyclopenta[c]thiophen-5-yl)amino)pyrimidin-4-yl)thiazol-4-yl)-2-fluorophenyl)-2,6-difluorobenzenesulfonamide], for which the IC50 is 0.15 µM. As for `O=S1(=O)CC2(CC(Nc3nccc(-c4sc(C5(C(F)(F)F)CC5)nc4-c4cccc(NS(=O)(=O)c5c(F)cccc5C(F)(F)F)c4F)n3)C2)C1` [Example 85, N-(3-(5-(2-((2,2-dioxido-2-thiaspiro[3.3]heptan-6-yl)amino)-pyrimidin-4-yl)-2-(1-(trifluoromethyl)cyclopropyl)thiazol-4-yl)-2-fluorophenyl)-2-fluoro-6-(trifluoromethyl)benzenesulfonamide], the IC50 is 0.03 µM. Then `O=S1(=O)CC2(CC(Nc3nccc(-c4sc(C56CCC(C5)C6)nc4-c4cccc(NS(=O)(=O)c5c(F)cccc5F)c4F)n3)C2)C1` [Example 20], with 0.24 µM.

Turning to `O=S1(=O)C[C@@H]2[C@H](C1)[C@@H]2Nc1nccc(-c2sc(C34CC5CC(CC(C5)C3)C4)nc2-c2cccc(NS(=O)(=O)c3c(F)cccc3F)c2F)n1` [Example 76, N-(3-(2-((3R,5R,7R)-adamantan-1-yl)-5-(2-(((1R,5S,6s)-3,3-dioxido-3-thiabicyclo[3.1.0]hexan-6-yl)amino)pyrimidin-4-yl)thiazol-4-yl)-2-fluorophenyl)-2,6-difluorobenzenesulfonamide], the IC50 was 0.87 µM.

Consider `CN1CC2CCC(C1)N2c1nc(-c2cccc(NS(=O)(=O)c3c(OC(F)F)cccc3C(F)(F)F)c2F)c(-c2ccnc(NC3CC4(C3)CS(=O)(=O)C4)n2)s1` [Example 75, 2-(difluoromethoxy)-N-(3-(5-(2-((2,2-dioxido-2-thiaspiro[3.3]heptan-6-yl)amino)pyrimidin-4-yl)-2-(3-methyl-3,8-diazabicyclo[3.2.1]octan-8-yl)thiazol-4-yl)-2-fluorophenyl)-6-(trifluoromethyl)benzenesulfonamide], for which the IC50 stood at 0.85 µM. Take `O=S1(=O)CCC(N2CC3CCC(C2)N3c2nc(-c3cccc(NS(=O)(=O)c4c(F)cccc4F)c3F)c(-c3ccnc(NC4CC5(C4)CS(=O)(=O)C5)n3)s2)CC1` [Example 38, N-(3-(5-(2-((2,2-dioxido-2-thiaspiro[3.3]heptan-6-yl)amino)-pyrimidin-4-yl)-2-(3-(1,1-dioxidotetrahydro-2H-thiopyran-4-yl)-3,8-diazabicyclo[3.2.1]octan-8-yl)thiazol-4-yl)-2-fluorophenyl)-2,6-difluorobenzenesulfonamide]: the IC50 stood at 8.12 µM.
